These results are taken from patent publication US4598146A, “Compound, arugomycin” (Kirin Beer Kabushiki Kaisha, priority 1983, dated 1986).

In this series the test system is mice. The conditions noted are these: mouse, in vivo, ip.

What is called LD50 is the dose at which mortality reaches 50%. A high value points to lower toxicity. In the case of `COC(=O)C1c2cc3c(c(O)c2C(OC2CC(OC)C(OC4CC(O)C(OC5CC(OC)C(OC6CC(OC)C(OC(=O)C=CC(=O)O)C(C)O6)C(C)O5)C(C)O4)C(C)O2)CC1(C)O)C(=O)c1c(O)cc2c(c1C3=O)OC1OC2(C)C(OC2CC(O)C(OC3CC(C)([N+](=O)[O-])C(OC4CC(OC)C(O)C(C)O4)C(C)O3)C(C)O2)C(N(C)C)C1O` (stereo not shown) [Arugomycin], the LD50 was found to be 1.75 mg/kg.
